Assay results reported in publication PMC11786100, “Chronic GIPR agonism results in pancreatic islet GIPR functional desensitisation” (Molecular Metabolism, 2025).

Legend:
Assay type in all cases: cell-based
human GCGR = molecular target: T1, human GCGR (Homo sapiens, UniProt P47871); assay: HTRF cAMP assay in transiently transfected AD-293 cells; details: 30 min stimulation, n = 3–5
T1 construct: Plasmids encoding full length, wild-type human or mouse GLP-1R, GIPR or glucagon receptor (GCGR) in the pcDNA5/FRT vector; host or cells: AD-293
Experimental: (§1) AD-293 cells were transfected with desired plasmid DNA 24 h prior to cAMP quantification using the cAMP-Gs Dynamic 2 kit (Cisbio, France), as per manufacturer's protocol. Full details are provided in the supplementary methods.
(§2) AD-293 cells were added to a 12-well plate and maintained in 2 ml complete DMEM. 1 μg of specified plasmid DNA was added to each well alongside Lipofectamine 2000 (Thermo Fisher, UK). cAMP production was quantified 24 hours following transfection using homogenous time resolved fluorescence (HTRF), specifically the cAMP-Gs Dynamic 2 kit (Cisbio, France). Peptides and cells were diluted in DMEM + 1% P/S + 0.1% BSA. For peptide stability testing, cells, fresh peptide and peptide incubated with dispersed islet cells were diluted in RPMI-1640 (Thermo Fisher, UK) + 10% FBS + 1% P/S. 10 μl of peptide and 10 μl of cell suspension were added in duplicate to an opaque 96-well plate (Grenier Bio-One, Austria) and incubated at 37°C for 30 minutes. 10 μl of cAMP-d2 and anti-cAMP cryptate, both diluted in lysis buffer, were added in quick succession as per the manufacturer’s protocol. The plates were then incubated at room temperature for 45 minutes and read using the SpectraMax i3x (Molecular Devices, US).

human GIPR = molecular target: T2, human GIPR (Homo sapiens, UniProt P48546); assay: as above; details: 30 min stimulation, n = 3–5
T2 construct: Plasmids encoding full length, wild-type human or mouse GLP-1R, GIPR or glucagon receptor (GCGR) in the pcDNA5/FRT vector; host or cells: AD-293
T2 sequence (P48546 22-466): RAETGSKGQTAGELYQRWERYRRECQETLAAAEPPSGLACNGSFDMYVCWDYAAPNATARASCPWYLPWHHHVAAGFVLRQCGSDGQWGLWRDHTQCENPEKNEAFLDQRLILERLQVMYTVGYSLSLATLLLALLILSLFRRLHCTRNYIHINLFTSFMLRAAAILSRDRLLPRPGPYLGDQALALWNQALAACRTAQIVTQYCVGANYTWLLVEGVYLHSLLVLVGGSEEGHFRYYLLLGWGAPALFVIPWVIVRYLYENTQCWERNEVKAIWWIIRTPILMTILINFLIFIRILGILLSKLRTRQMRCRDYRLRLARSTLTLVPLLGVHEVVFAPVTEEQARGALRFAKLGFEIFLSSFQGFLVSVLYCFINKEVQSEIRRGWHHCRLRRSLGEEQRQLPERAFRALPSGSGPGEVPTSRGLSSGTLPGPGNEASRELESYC
Experimental: as §1, §2

human GLP-1R = molecular target: T3, human GLP-1R (Homo sapiens, UniProt P43220); assay: as above; details: 30 min stimulation, n = 3–5
T3 construct: Plasmids encoding full length, wild-type human or mouse GLP-1R, GIPR or glucagon receptor (GCGR) in the pcDNA5/FRT vector; host or cells: AD-293
Experimental: as §1, §2

mouse GCGR = molecular target: T4, mouse GCGR (Mus musculus, UniProt Q61606); assay: as above; details: 30 min stimulation, n = 3–5
T4 construct: Plasmids encoding full length, wild-type human or mouse GLP-1R, GIPR or glucagon receptor (GCGR) in the pcDNA5/FRT vector; host or cells: AD-293
Experimental: as §1, §2

GIPR = molecular target: T5, GIPR (Mus musculus, UniProt Q0P543); assay: Ex vivo islet GIPR desensitisation (pre-treat/washout/rechallenge cAMP); details: for rechallenge cAMP response after 24-hour pre-treatment: cADDis
T5 construct: from tissue; host or cells: dispersed pancreatic islets of C57BL/6J, CAMPER Pdx1-CreERT2 and CAMPER Som-Cre mice
T5 sequence (Q0P543 19-460): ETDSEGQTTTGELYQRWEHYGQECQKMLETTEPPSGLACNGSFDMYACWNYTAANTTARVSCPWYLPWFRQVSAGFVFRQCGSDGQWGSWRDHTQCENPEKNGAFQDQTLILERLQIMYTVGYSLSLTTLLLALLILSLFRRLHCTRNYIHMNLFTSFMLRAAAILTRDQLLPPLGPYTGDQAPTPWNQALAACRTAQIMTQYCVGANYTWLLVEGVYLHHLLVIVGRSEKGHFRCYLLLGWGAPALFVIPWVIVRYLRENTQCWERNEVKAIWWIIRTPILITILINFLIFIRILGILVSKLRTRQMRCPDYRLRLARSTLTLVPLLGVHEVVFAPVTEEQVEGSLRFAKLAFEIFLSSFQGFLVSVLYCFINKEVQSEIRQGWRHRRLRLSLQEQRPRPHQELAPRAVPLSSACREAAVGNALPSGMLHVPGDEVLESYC
Experimental: Primary cultures of mouse hypothalamic neurons and dispersed pancreatic islets were transduced with the Green Up cADDis biosensor (Montana Molecular, US). Pancreatic islets from CAMPER^Pdx−1-CreERT2 and CAMPER^Som-Cre mice were not transduced. Cells were pre-treated with peptides as specified, dissolved in culture media. Following 4 h or overnight incubation and a 1-hour washout period, cells were imaged using an epifluorescence microscope at baseline (t = 3 min), following peptide addition (t = 10 min, unless specified otherwise), and following 3-isobutyl-1-methylxanthine (IBMX) (500 μM) and forskolin (FSK) (50 μM) addition (t = 3 min) to maximally stimulate the sensor. In pre-treatment experiments, islet cell fluorescence was normalised to the IBMX/FSK response which was set as 100%. In non-pre-treatment experiments, islet and neuronal cell fluorescence was normalised to both the baseline and IBMX/FSK response. The area-under-the-curve (AUC) for each cell was quantified. Full details of isolation, transduction, plating, imaging and image analysis is provided in the supplementary methods.
During this treatment, peptides were dissolved in islet culture media. Prior to imaging, the peptide washout period was 1 hour in Krebs buffer with 6 mM glucose and 0.1% BSA.
Cells were imaged in Krebs buffer with 6 mM glucose and 0.1% BSA (unless 10% FBS was specified) at 37°C using an automated epifluorescence microscope (modified Nikon Ti-2E with LED illumination). Multiple fields of view (FOV) were imaged in parallel (for islets, multiple wells of a 96 well plate were imaged in parallel), allowing hundreds to thousands of cells to be imaged every minute throughout the time course. For all acquisitions, the first three minutes were baseline recording pre-peptide addition and the last three minutes were a positive control following IBMX (500 μM) and forskolin (50 μM) addition to maximally stimulate the sensor.
Cells were imaged in a similar setup described in the previous paragraph. However, an image spitter (OptoSplit III, Cairn Research Ltd, UK) was used to enable simultaneous acquisition of cyan fluorescent protein (CFP) and yellow fluorescent protein (YFP) emission. cAMP was quantified based on the YFP/CFP FRET ratio from each cell.
cAMP quantification from the raw islet/neuronal images was performed using Fiji v1.54f (NIH). […] The fluorescence intensity of each ROI was measured at each time point. In pre-treatment experiments, islet cell fluorescence was normalised to the maximal IBMX/FSK response which was set as 100%. For non-pre-treatment experiments, neuronal and islet cell fluorescence were normalised to both the baseline and maximal IBMX/FSK response. The AUC during peptide stimulation for each cell was quantified. […]

T1 sequence (P47871 26-477): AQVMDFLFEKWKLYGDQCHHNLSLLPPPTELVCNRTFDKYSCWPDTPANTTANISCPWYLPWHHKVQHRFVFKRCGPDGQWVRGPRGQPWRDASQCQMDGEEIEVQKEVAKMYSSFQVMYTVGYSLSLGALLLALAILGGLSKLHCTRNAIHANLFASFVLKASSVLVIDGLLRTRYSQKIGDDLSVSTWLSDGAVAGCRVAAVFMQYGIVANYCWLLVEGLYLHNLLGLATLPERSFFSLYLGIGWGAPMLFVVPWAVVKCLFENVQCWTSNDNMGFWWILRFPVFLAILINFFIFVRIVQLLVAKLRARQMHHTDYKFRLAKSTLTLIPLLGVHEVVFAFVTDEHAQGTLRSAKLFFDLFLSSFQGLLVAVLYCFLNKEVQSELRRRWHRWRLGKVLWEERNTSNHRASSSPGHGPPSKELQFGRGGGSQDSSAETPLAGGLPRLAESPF
T4 sequence (Q61606 27-485): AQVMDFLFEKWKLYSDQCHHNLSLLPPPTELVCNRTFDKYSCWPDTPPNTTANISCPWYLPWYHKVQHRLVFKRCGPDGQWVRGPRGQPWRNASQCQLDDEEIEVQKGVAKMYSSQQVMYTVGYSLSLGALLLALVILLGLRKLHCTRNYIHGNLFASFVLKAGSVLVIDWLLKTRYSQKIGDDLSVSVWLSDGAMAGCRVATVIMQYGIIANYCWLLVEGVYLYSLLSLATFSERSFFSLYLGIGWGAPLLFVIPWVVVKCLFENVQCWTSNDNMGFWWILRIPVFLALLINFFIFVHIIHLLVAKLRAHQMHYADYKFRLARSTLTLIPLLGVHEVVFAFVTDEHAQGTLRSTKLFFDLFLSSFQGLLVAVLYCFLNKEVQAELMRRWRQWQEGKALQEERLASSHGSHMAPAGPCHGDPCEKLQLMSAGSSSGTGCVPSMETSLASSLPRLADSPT
T3 sequence (P43220 24-463): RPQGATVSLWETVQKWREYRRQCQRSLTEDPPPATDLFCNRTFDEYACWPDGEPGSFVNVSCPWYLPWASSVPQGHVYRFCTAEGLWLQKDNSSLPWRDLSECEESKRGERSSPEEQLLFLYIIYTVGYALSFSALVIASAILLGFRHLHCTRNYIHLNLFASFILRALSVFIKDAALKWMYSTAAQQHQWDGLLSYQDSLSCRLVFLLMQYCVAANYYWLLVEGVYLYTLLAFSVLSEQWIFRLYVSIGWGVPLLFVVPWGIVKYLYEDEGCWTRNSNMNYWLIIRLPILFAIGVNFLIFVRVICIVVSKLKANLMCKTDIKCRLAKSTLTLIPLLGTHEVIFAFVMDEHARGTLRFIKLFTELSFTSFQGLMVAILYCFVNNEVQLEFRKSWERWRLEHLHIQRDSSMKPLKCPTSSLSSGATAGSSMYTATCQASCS

CC[C@H](C)[C@H](NC(=O)[C@H](CO)NC(=O)[C@H](Cc1ccc(O)cc1)NC(=O)[C@H](CC(=O)O)NC(=O)[C@H](CO)NC(=O)[C@@H](NC(=O)[C@H](Cc1ccccc1)NC(=O)[C@@H](NC(=O)CNC(=O)[C@H](CCC(=O)O)NC(=O)C(C)(C)NC(=O)[C@@H](N)Cc1ccc(O)cc1)[C@@H](C)O)[C@@H](C)CC)C(=O)N[C@@H](C)C(=O)N[C@@H](CC(C)C)C(=O)N[C@@H](CC(=O)O)C(=O)N[C@@H](CCCCN)C(=O)N[C@H](C(=O)N[C@@H](Cc1c[nH]cn1)C(=O)N[C@@H](CCC(N)=O)C(=O)N[C@@H](CCC(N)=O)C(=O)N[C@@H](CC(=O)O)C(=O)N[C@@H](Cc1ccccc1)C(=O)N[C@H](C(=O)N[C@@H](CC(N)=O)C(=O)N[C@@H](Cc1c[nH]c2ccccc12)C(=O)N[C@@H](CC(C)C)C(=O)N[C@@H](CC(C)C)C(=O)N[C@@H](C)C(=O)N[C@@H](CCC(N)=O)C(=O)N[C@@H](CCCCN)C(=O)NCC(=O)N[C@@H](CCCCNC(=O)CC[C@H](NC(=O)CCCCCCCCCCCCCCCCCCC(=O)O)C(=O)O)C(=O)N[C@@H](CCCCN)C(=O)N[C@@H](CC(N)=O)C(=O)N[C@@H](CC(=O)O)C(=O)N[C@@H](Cc1c[nH]c2ccccc12)C(=O)N[C@@H](CCCCN)C(=O)N[C@@H](Cc1c[nH]cn1)C(=O)N[C@@H](CC(N)=O)C(=O)N[C@H](C(=O)N[C@H](C(=O)N[C@@H](CCC(N)=O)C(=O)O)[C@@H](C)O)[C@@H](C)CC)C(C)C)[C@@H](C)CC [GIP108]
cAMP activation of human GCGR (human GCGR): minimal activation
cAMP potency at human GIPR compared with human GIP(1–42) (human GIPR): potency similar to human GIP(1–42)
cAMP activation of human GLP-1R (human GLP-1R): minimal activation
cAMP activation of mouse GCGR (mouse GCGR): minimal activation
GIPR desensitisation in pancreatic beta cells (GIPR; 24 h GIP108 pre-treatment, TEpacVV FRET sensor, CAMPER Pdx-1-CreERT2 mice, n = 4): GIPR desensitisation was observed in both cell types
GIPR desensitisation in pancreatic delta cells (GIPR; 24 h GIP108 pre-treatment, TEpacVV FRET sensor, CAMPER Som-Cre mice, n = 5): GIPR desensitisation was observed in both cell types
rechallenge cAMP response after 24-hour pre-treatment (GIPR; islets from HFD-induced obese mice, pre-treatment and rechallenge GIP108 (1 µM), n=3): The same effects were observed
rechallenge cAMP response after 24-hour pre-treatment (GIPR; pre-treatment 100 nM or 1 μM GIP108, rechallenge GIP108 (1 μM), dispersed islets from lean mice, n = 11–12): significantly reduced
